ChEMBL document CHEMBL1128126, “Inhibitors of human leukocyte elastase. 2.1 synthesis and sar of benzisothiazolinylmethyl aryl ethers” (Bioorg Med Chem Lett, 1995)

Columns and labels:
[1] = molecular target: T1, Neutrophil elastase (Homo sapiens, UniProt P08246); assay: Binding affinity for human leukocyte elastase (HLE); Kreact/Kinact
T1 sequence (P08246 whole entry): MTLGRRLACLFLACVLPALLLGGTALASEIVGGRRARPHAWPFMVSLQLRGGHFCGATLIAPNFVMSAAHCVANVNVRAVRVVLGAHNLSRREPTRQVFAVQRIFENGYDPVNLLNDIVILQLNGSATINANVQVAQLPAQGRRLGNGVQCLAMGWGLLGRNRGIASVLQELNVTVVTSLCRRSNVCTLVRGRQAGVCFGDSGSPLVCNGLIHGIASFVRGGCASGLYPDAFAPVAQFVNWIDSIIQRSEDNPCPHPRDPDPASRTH

[2] = molecular target: T2, Neutrophil elastase (Homo sapiens) (UniProt P08246)
T2 sequence (whole entry): T1 sequence (P08246 whole entry)
Description: Inhibition of human leukocyte elastase (HLE)

Ki [1]	K inact [2]	Compound
> 100 nM	–	CC(C)c1cccc2c1C(=O)N(COc1cccc(C(=O)NCCN3CCOCC3)c1)S2(=O)=O
2.2 nM	3700 M⁻¹ s⁻¹	CO[C@H]1C(=O)N2C(C(=O)N3CCC[C@H]3C(=O)O)=C(COC(C)=O)CS(=O)(=O)[C@H]12
> 1000 nM	–	CC(C)c1cccc2c1C(=O)N(COc1cccc(C(=O)OCCN3CCOCC3)c1)S2(=O)=O
> 100 nM	–	CC(C)c1cccc2c1C(=O)N(COc1c(Cl)cccc1Cl)S2(=O)=O
